Patent US11312940B2, “Progenitor cells and methods for preparing and using the same” (University of Louisville Research Foundation, Inc., priority 2015, dated 2022)

Key:
[1] = system: Sca-1+/Lin-/CD45+ cells (HSPCs); test: In vivo BrdU incorporation into BM HSPCs; parameters: species or system mouse
Protocol: (§1) Hormone treatment was performed for 10 days.
(§2) All mAbs were added at saturating concentrations, and the cells were incubated for 30 minutes on ice, washed twice, and then resuspended for sorting in cell-sorting medium containing 1× Hank's Balanced Salt Solution without phenol red (GIBCO™, a division of Thermo Fisher Scientific Inc., Waltham, Mass.), 2% heat-inactivated fetal calf serum (GIBCO™), 10 mM HEPES buffer (GIBCO™), and 30 U/mL gentamicin (GIBCO™) at a concentration of 5×10^6 cells/mL. Sca-1^+/Lin^−/CD45^− cells (VSELs) and Sca-1^+/Lin^−/CD45^+ cells (HSCs) were isolated according to the gating and sorting strategy described in Zuba-Surma & Ratajczak, 2010 and Suszynska et al, 2014b. Proliferation events in BM-derived VSEL and HSC populations were examined by BrdU incorporation followed by flow cytometry.
(§3) Adult C57BL/6 mice (4-8 weeks old; Jackson Laboratory) were intraperitoneally (i.p.) were injected daily with 1 mg of BrdU solution to evaluate whether SexHs affect proliferation of stem cells, and the final injection of BrdU was performed 1 hour before sacrificing the animals (see Grymula et al, 2014). […] Samples were analyzed with a Navios flow cytometer (Beckman Coulter).

[2] = system: Sca-1+/Lin-/CD45- cells (VSELs); test: In vivo BrdU incorporation into BM VSELs; parameters: species or system mouse; conditions: for BrdU incorporation response of Sca-1+/Lin-/CD45- cells (ranking): 10-day administration
Protocol: as §1, §2, §3

[3] = system: BM VSELs; test: Total number of BM VSELs by FACS after SexH administration; type: in vivo, mouse; conditions: 10-day administration; for increase in total number of VSELs/10^6 BMMNCs (ranking): female mice; for increase in total number of VSELs/10^6 BMMNCs: male BM
Protocol: as §1, §2

[4] = system: BM HSPCs; test: Total number of BM HSPCs by FACS after SexH administration; type: in vivo, mouse; conditions: male and female mice, 10-day administration
Protocol: as §1, §2

[5] = system: sublethally irradiated mice; test: Recovery of PB counts in sublethally irradiated mice; type: in vivo, mouse; conditions: 650 cGy, injections for 10 days
Protocol: Fifty microliters of PB was taken from the retro-orbital plexus of the mice and collected into microvette EDTA-coated tubes (Sarstedt AG & Co., Nümbrecht, Germany). Samples were run within 2 hours of collection on a HEMAVET® 950 hematology analyzer (Drew Scientific Inc., Oxford, Conn.) as described in Borkowska et al., 2014.
Blood was collected on days 0, 3, 7, 14, 21, and 28, and white blood cell (WBC), platelet, red blood cells (RBC), and hematocrit were measured on a HEMAVET® instrument (HV950FS; Drew Scientific Inc.) as described in Borkowska et al, 2014. Experiments were performed twice (each time, n=5).

Molecule	increase in percentage of BrdU+ Sca-1+/Lin-/CD45+ cells (ranking) ([1]; 10-day administration)	BrdU incorporation response of Sca-1+/Lin-/CD45- cells (ranking) ([2]; female and male cells)	increase in total number of VSELs/10^6 BMMNCs (ranking) [3]	increase in total number of VSELs/10^6 BMMNCs [3]	increase in BM HSPCs/10^6 BMMNCs (ranking) [4]	leucocyte counts [5]	BrdU incorporation into Sca1+/Lin-/CD45+ HSPCs ([1]; ovariectomized female mice)	BrdU incorporation in Sca-1+/Lin-/CD45- VSELs ([2]; ovariectomized female mice)	BrdU incorporation response of Sca-1+/Lin-/CD45- cells (ranking) ([2]; female cells)
C#C[C@]1(O)CC[C@H]2[C@@H]3CCC4=Cc5oncc5C[C@]4(C)[C@H]3CC[C@@]21C [danazol]	highest increases	highest response	most effective	about 2.5 fold	highest stimulatory effect	statistically significant increase			
C[C@]12CC[C@@H]3c4ccc(O)cc4CC[C@H]3[C@@H]1CC[C@@H]2O [estrogen, estradiol]				about 2.5 fold					
CC(=O)[C@H]1CC[C@H]2[C@@H]3CCC4=CC(=O)CC[C@]4(C)[C@H]3CC[C@]12C [progesterone]							small increase in BrdU incorporation	enhanced BrdU incorporation	
prolactin (protein, UniProt P01236 29-227, looked up, pituitary sex hormone, purchased from ProSpec) Prolactin: LPICPGGAARCQVTLRDLFDRAVVLSHYIHNLSSEMFSEFDKRYTHGRGFITKAINSCHTSSLATPEDKEQAQQMNQKDFLSLIVSILRSWNEPLYHLVTEVRGMQEAPEAILSKAVEIEEQTKRLLEGMELIVSQVHPETKENEIYPVWSGLPSLQMADEESRLSAYYNLLHCLRRDSHKIDNYLKLLKCRIIHNNNC			most effective	about 2.5 fold		statistically significant increase			highest response
